{"source": "patent US6586006B2", "about": "“Solid delivery systems for controlled release of molecules incorporated therein and methods of making same” (Elan Drug Delivery Limited, priority 1994, dated 2003)", "key": {"[1]": {"experiment": "Encapsulation of organic substances in α-D-glucose pentaacetate glass", "format": "physicochemical", "experimental": "Excellent recoveries were obtained in the encapsulation of several organic substances in the glasses. Glass discs of α-D-Glucose pentaacetate containing 2% w/w of the materials listed in Table 4 were formed by melting and quenching and then ground. Photochrome II is 5-chloro-1,3-dihydro-1,3,3-trimethyl spiro[2H-indole-2,3′-[3H]-napth[2,1-b] [1,4]-oxazine. The encapsulated materials were extracted by the suitable solvent such as methanol or water.\nPesticide-like Oxadiazon was dissolved easily in the melt of this glass at about 15% w/w without problem."}, "[2]": {"experiment": "Glass transition temperature (Tg) by thermal analysis (DSC)", "format": "physicochemical", "source_text": "In general, the tendency to crystallize, from a cooling melt or with reducing solvent, is low. Both devitrification and the fluidity of the melt at temperatures close to Tg, can be controlled by modifiers such as other derivative sugars and certain organic actives. The following two tables, generated as described in the Examples presented below, provide Tg and melting temperature data for a variety of HDCs suitable for use, either alone, or in a composite glass, herein.\nDissolution of synthetic corticosteroid XPDO (described below) into a TOAC melt and quenching to form the vitreous solid dose delivery system was achieved. By looking at the release of MB9 into aqueous solution, these experiments tested the compatibility of the steroid within the glass, subsequent recovery of the steroid and studied the effect that XPDO has on the properties of the delivery system formed looking at the release of MB9 into aqueous solution. TOAC (3.21 g) was pre-melted at 150° C., before being quenched to glass. The glass was finely ground with XPDO (0.15 g) before being remelted. The clear melt was again quenched to yield the composite HDC/active glass. Thermal analysis was carried out on a Rheometric Scientific Differential Scanning Calorimeter (DSC) at a heating rate of 10°/min under a nitrogen atmosphere. The following samples were prepared:\nStudies were performed using the synthetic corticosteroid XPDO dissolved in DCM. The solution was spray dried in a Buchi B-191 spray drier, using an inlet temperature of 40° C. […] XPDO was incorporated at 20 wt %. The powder was completely amorphous as confirmed by thermal analysis (Tg=46° C.)."}, "[3]": {"experiment": "Resistance of glasses to devitrification on exposure to relative humidity", "format": "physicochemical", "experimental": "Glasses were made by evaporating DCM on a hotplate set at 65° C. from a 25% solutions of TOAC (50% solutions often deposited crystals in the pipette tip). Drying was carried out for 2 hr to be certain of complete dryness. Uniform glasses were produced by using an Eppendorf-type pipette to deliver 100 μl to a slide recently placed on the hotplate and then removing about 50 μl by using the clear/expel volume of the pipette.\nXPDO was therefore incorporated into a TOAC glass by dissolving both crystalline TOAC and XPDO in DCM and evaporating the solvent at 70° C. on a hotplate. XPDO was used in proportions of 10% and 20% of total solids in the final TOAC glass.\n(§1) The resulting glasses were tested for their utility as controlled release matrices in two ways. First, they were assessed for their ability to resist devitrification on exposure to high RH at RT. Second, they were immersed in water or phosphate-buffered saline (PBS) to study their solubility and rate of erosion by surface recrystallization."}, "[4]": {"experiment": "Controlled release of encapsulated MB9 dye from HDC glass beads/discs", "format": "physicochemical", "experimental": "In the following experiments, the delivery system was preformulated, whether as a single material, or as a mixed composition. This was carried out by intimately grinding the component HDCs together, followed by careful, controlled melting in a furnace, between 120-140° C. and with normal atmosphere to form melts. The melts were quenched to glass by pouring over a brass block. This glass was then finely ground.\nMB9 dye (1 or 5 wt %) was mixed with the ground glass prior to re-melting at 140° C. The melt was quenched to form small glass beads (2.5 mm diameter) which were used in controlled release experiments.\nControlled release of encapsulated dye was monitored by suspending three such beads in 25 or 50 ml of deionized water or PBS solution at ambient temperatures (27-30° C.) or at 37° C., as indicated. The media were undisturbed, except for periodic stirring and were replaced at set intervals with fresh media (generally at 72 hr intervals). Both single HDC glasses and composite HDC glasses were formed. […] The use of other HDCs as glass modifiers in the composite HDC formulations enable the tailoring of the glasses formed to yield the release characteristics desired.\nIn FIG. 8, the results were obtained from TOAC glass discs (6 mm×2.5 mm) with MB9 dye evenly dispersed therein at 2 wt %. Release was controlled at 25° C. with gentle stirring and media changes at regular intervals. Note the linear release of MB9 dye over a 55 day period. The results presented in FIG. 8 indicate that a pure HDC vitreous delivery vehicle system gives zero-order release rates of guest substances. The results presented in FIGS. 9-14 show variation on release rates by changing the ratios of different HDCs in the delivery systems, changing the carbohydrate backbone length and by changing the nature of the derivative on the carbohydrate backbone. In each instance it is clear that the HDC delivery systems allow a wide range of release rates that can be tailored to the guest substance and the delivery thereof."}, "[5]": {"tested_on": "African Green monkey kidney-derived cell line Vero", "experiment": "In vitro toxicity of TOAC in Vero cell culture", "format": "cell-based", "conditions": "saturated solution in 10-fold serial dilution or powder added to medium; week of culture", "experimental": "A saturated solution of TOAC in deionised distilled water (0.42 g in 20 mls) was tested for toxicity in vitro using the African Green monkey kidney-derived cell line Vero, in either a 10-fold serial dilution or by adding the TOAC powder directly to the tissue culture medium."}, "[6]": {"experiment": "Devitrification / recrystallization of glasses immersed in liquid water", "format": "physicochemical", "experimental": "However, when immersed in liquid water, the surface of the glass slowly recrystallized so that microscopic pyramidal crystals of TOAC could be seen under an inverted microscope within 15-30 min of addition of water. Crystallization was slowly progressive and within another few minutes small clusters of the typical needle shaped crystals of XPDO appeared. Since neither the needle shaped XPDO crystals nor the pyramidal TOAC crystals were adherent to the underlying glass, they were washed away readily to reveal a fresh glass surface for further slow dissolution. The complete exclusion of XPDO from the TOAC crystals ensured that this molecule, previously incorporated in the glassy TOAC matrix, was now released into the liquid phase.\nas §1\nThe 10% α-GPAC and 10% TOPR in TOAC glasses and the 50:50 molar ratio TOAC:α-GPAC glass were also immersed in water to examine their rate of devitrification in liquid water rather than humid air."}, "[7]": {"experiment": "Stability, recovery and release of XPDO from HDC glass (HPLC)", "format": "physicochemical", "experimental": "Release characteristics of the vitreous HDC solid dose delivery systems were studied by monitoring the release of MB9 from TOAC/XPDO glasses as shown in FIG. 15. For analysis of stability of active in the vitreous HDC solid dose delivery systems, XPDO was recovered from the samples by dissolving the glass in acetonitrile and analyzing by HPLC. There was full recovery of the guest substance even after storage at 45° C. for 4 weeks.\nFor analysis XPDO was extracted from the spray-dried powder by dissolving the powder in acetonitrile and then diluting the acetonitrile with sodium phosphate buffer prior to analysis by HPLC. Samples were set up to test stability of XPDO in the spray dried formulations at 45° C. and stored over saturated Zinc sulphate (RH 80-85%).\nFor release into sodium phosphate buffer, 0.0868 g of the spray dried powder was shaken in 10 mls of the buffer for 1 minute. The suspension was then filtered through a 0.2 μm filter. […] Bioavailability of the steroid from the delivery system was tested by immersion in an aqueous solution for a short time. Stability of the steroid in the spray-dried formulation was tested at high humidity and 45° C. (both factors are important if the application as an inhalable powder is to be successful). The results indicated a resistance to high humidity, stability in the glass and ready bioavailability in vitro tests."}}, "note": "“Also recorded” adds a separate entry of the source.", "data": [{"compound": "CC(C)Oc1cc(-n2nc(C(C)(C)C)oc2=O)c(Cl)cc1Cl", "note": "[Oxadiazon]", "values": [{"measurement": "amount dissolved in the melt of the glass", "setting": "[1]", "value": "about 15 % w/w"}]}, {"compound": "CC(=O)OC[C@H](OC(C)=O)[C@@H](OC(C)=O)[C@H](OC(C)=O)[C@@H](COC(C)=O)OC(C)=O", "note": "[SHAC, sorbitol hexaacetate]", "values": [{"measurement": "Tg/° C.", "setting": "[2]; single HDC glasses (Table 1)", "value": "−6", "unit": "°C"}, {"measurement": "melting point", "value": "100 to 104", "unit": "°C"}]}, {"compound": "CC(=O)OCC1OC(OC2OC(COC(C)=O)C(OC(C)=O)C(OC(C)=O)C2OC(C)=O)C(OC(C)=O)C(OC(C)=O)C1OC(C)=O", "note": "(stereo not drawn) [TOAC, trehalose octaacetate]", "values": [{"measurement": "Tg", "setting": "[2]; glass quenched from melt, DSC, heating rate 10°/min, nitrogen", "value": "Tg = 50.1 °C"}, {"measurement": "Tg/° C.", "setting": "[2]; single HDC glasses (Table 1)", "value": 50, "unit": "°C"}, {"measurement": "Tg/° C.", "setting": "[2]; single and composite HDC glasses, mole ratios of HDCs in glass (Table 2)", "value": 50, "unit": "°C"}, {"measurement": "recrystallization of glass on storage", "setting": "[3]; TOAC glass from DCM on slides, room temperature, 50-60% relative humidity", "value": "gradually recrystallized over 1 month"}, {"measurement": "Initial Form", "setting": "[3]; mixed HDC glasses (Table 6)", "value": "Glass"}, {"measurement": "After RH 24 hr", "setting": "[3]; mixed HDC glasses exposed to high RH (75% to 95%) at RT, 24 hr", "value": "Cryst + + + +"}, {"measurement": "devitrification at RH from 75% to 95%", "setting": "[3]; thin glass films and quenched disks, RT, overnight exposure", "value": "very susceptible to devitrification at high RH; also recorded: crystallized at all RHs from 75% to 95%"}, {"measurement": "period of linear release of MB9 dye", "setting": "[4]; TOAC glass discs 6 mm×2.5 mm, MB9 2 wt %, PBS, 25° C., FIG. 8", "value": 55, "unit": "days"}, {"measurement": "MB9 release characteristics", "setting": "[4]; TOAC glass, MB9 dye", "value": "zero-order release characteristics"}, {"measurement": "cell division", "setting": "[5]", "value": "normal"}, {"measurement": "toxic effects", "setting": "[5]", "value": "No toxic effects were observed"}]}, {"compound": "CCCC1OC2CC3C4CC(F)C5=CC(=O)CCC5(C)C4(F)C(O)CC3(C)C2(C(=O)CO)O1", "note": "(stereo not drawn) [XPDO, 6α,9α-difluoro-11β,21-dihydroxy-16α,17α-propyl methylene dioxy-4-pregnene-3,20-dione]", "values": [{"measurement": "Tg", "setting": "[2]; spray dried amorphous powder, XPDO incorporated at 20 wt %", "value": 46, "unit": "°C"}, {"measurement": "HDC glass stability at high relative humidity", "setting": "[3]; 10% (w/v) guest in HDC (TOAC) glass, RH up to 95%, room temperature", "value": "stable when exposed to relative humidities of up to 95% at room temperature for over a month"}, {"measurement": "change in glass structure such as recrystallization", "setting": "[3]; guest in TOAC glass from DCM, stored at RH of 75%, 81%, 90% and 95% for 4 weeks", "value": "no change in glass structure"}, {"measurement": "time to release of guest substance when added to liquid water", "setting": "[6]; 10% (w/v) guest in HDC glass", "value": "5 to 10", "unit": "min"}, {"measurement": "time to surface recrystallization after immersion in water", "setting": "[6]; glass immersed in liquid water", "value": "15 to 30", "unit": "min"}, {"measurement": "degradation on HPLC analysis", "setting": "[7]; spray dried glass powder, 4 weeks storage at 45° C. and 85% RH", "value": "No evidence of any degradation"}, {"measurement": "release into sodium phosphate buffer", "setting": "[7]; spray dried powder shaken in buffer for 1 minute, filtered, HPLC", "value": "effectively being released into aqueous solution"}]}]}
